Experiment: gradient 5% acetonitrile 3 min, to 50% in 2 min, to 85% in 15 min, held 3 min, 100 µL/min
Conditions: column: Zorbax Extend-C18 2.1 x 50 mm; eluents: water / acetonitrile, 0.1% formic acid
Procedure, shortened: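 Mixtures of ~100 pure standards were chromatographed on a Zorbax Extend-C18 column (2.1 × 50 mm, 1.8 μm) at 100 μL/min using water and acetonitrile, each with 0.1% formic acid. Detection used a quadrupole time-of-flight mass spectrometer in positive and negative ionization mode, and data collection spanned 3 months. Retention time was obtained from adduct peaks picked computationally and each checked manually.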

RP-LC retention time [s] | Structure (SMILES)
625 | Cc1nc2ncnn2c(N2CCOCC2)c1C
946 | O=C(c1cc(F)cc(F)c1)N1CCc2nc(-c3ccccc3)ncc2C1
1260 | COc1cc(Cl)c(NC(=O)C2CCCN(c3nccnc3Sc3ccc(C)cc3)C2)c(OC)c1 (stereo unspecified)
682 | Cc1ccc(N2CC(NC(=O)NCc3ccco3)CC2=O)cc1C (stereo unspecified)
1020 | Cc1[nH]c(C(=O)Nc2ccc(F)c(Cl)c2)c(C)c1S(=O)(=O)N1CCCCC1
992 | CCN1C(=O)COc2ccc(-c3noc(C4CC(=O)N(c5ccc(C)c(C)c5)C4)n3)cc21 (stereo unspecified)
728 | CCOC(=O)c1c(S(=O)(=O)NCc2ccccc2F)n[nH]c1C
630 | OC(c1ccc(C(F)(F)F)cc1)c1cccnc1 (stereo unspecified)
569 | CCC1CCCCN1CCNC(=O)C1CCCN(c2cnc3nccnc3c2)C1 (stereo unspecified)
630 | Cc1nnc(NC(=O)Cn2cnc(-c3cccs3)cc2=O)s1
683 | COc1cc(C)c(S(=O)(=O)Nc2ccc(-c3cn4ccc(C)nc4n3)cc2)cc1C
1030 | CC(C)(C)C1(C)NN=C2Sc3ccccc3N21 (stereo unspecified)
1190 | CCn1cccc1-c1nc(C)c(C(=O)N2CCN(c3cccc(C)c3)C(C)C2)s1 (stereo unspecified)
889 | O=C(Nc1ccccc1F)N1CCC(CCNC(=O)C2(c3ccccc3)CC2)CC1
690 | O=C(CSc1nccc(-c2ccc3c(c2)OCO3)n1)N1CCOCC1
556 | CCn1nccc1C(=O)N1CCN(c2ncnc3c2CCC3)CC1
646 | O=C(Nc1ccc(OC2CCNCC2)nc1)C1(c2ccccc2)CC1
577 | Cc1ccc2[nH]c(=O)c(CCC(=O)NCCN3CCOCC3)cc2c1
705 | CCC(C(=O)Nc1ccc(-c2cn3ccc(C)nc3n2)cc1)c1ccccc1 (stereo unspecified)
997 | CCc1cc(C(=O)Nc2ccc(Cl)cc2)no1
854 | CCCN1C(=O)Cc2ccccc2C1C(=O)NCc1cccc(Br)c1 (stereo unspecified)
944 | O=C(Nc1ccccc1)N1CC(c2nc(CCOCC3CCCC3)no2)C1
840 | CC(=O)c1cccc(NC(=O)c2cccc(Br)c2)c1

RP-LC retention time [s] | Structure (SMILES)
967 | CCCCc1ccc(NC(=O)CSc2cc(N3CCC(C(=O)NCCC)CC3)ncn2)cc1
870 | Cc1nnc2ccc(S(=O)(=O)N(Cc3ccccc3)c3ccc(F)cc3)cn12
750 | Cc1ccc(NC(=O)CC(=O)Nc2ccc3nc4n(c(=O)c3c2)CCCCC4)cc1F
815 | O=C(Cn1c(=O)c2cc(C3CC3)nn2c2ncccc21)Nc1cc(F)cc(F)c1
659 | CCCn1cnnc1C1CCCCN1C(=O)NCc1ccc(OC)cc1 (stereo unspecified)
615 | CCS(=O)(=O)N1CCCCC1c1nc(-c2cccnc2)n[nH]1 (stereo unspecified)
870 | CCCCNC(=O)Nc1ccccc1CC
630 | C=CC(=O)Nc1cc2c(Nc3ccc(F)c(Cl)c3)ncnc2cc1OCCCN1CCOCC1
941 | COc1ccc(-c2nnc(COc3cccc(NC(=O)c4ccccn4)c3)o2)cc1
785 | COc1ccc(C2(CNS(=O)(=O)c3ccc4c(c3)OCCO4)CCOCC2)cc1
692 | COc1cc(C2c3c(-c4ccc(C)cc4)n[nH]c3C(=O)N2C)ccc1O (stereo unspecified)
660 | O=C(Cn1ncc2c(N3CCN(c4ccccn4)CC3)ncnc21)Nc1ccc(OC(F)(F)F)cc1
801 | CCn1ccc(C(=O)Nc2ccccc2)n1
708 | O=C(Cn1c(=O)ccc2cc(S(=O)(=O)N3CCCC3)ccc21)N1CCN(c2ncccn2)CC1
819 | COc1ccc(C)cc1NC(=O)N1C[C@@H]2C[C@H]1C[C@@H]2NC(=O)c1cccs1
1070 | CC1(C)CC(=O)c2cn(-c3ccc(F)cc3)c(=O)c(C(=O)Nc3ccccc3F)c2C1
548 | CCOc1ccccc1NS(=O)(=O)c1cc2c3c(c1)CCC(=O)N3CCC2
1200 | Cc1ccc(-c2nc(-c3ccc(-c4noc(CNC(=O)Cc5ccccc5)n4)cc3)cs2)s1
651 | Cc1nnc(C2CCCN(C(=O)c3ccc4nsnc4c3)C2)s1 (stereo unspecified)
1150 | CCC1CCCCN1C(=O)CN1CCCN(Cc2cc(C)ccc2C)S1(=O)=O (stereo unspecified)
1060 | Cc1nn(-c2ccc(F)cc2)c2sc(C(=O)NCCc3ccco3)cc12
902 | Cc1ccc(-c2cc(C(=O)NCc3ccc4c(c3)OCO4)ccn2)s1
657 | O=C([C@@H]1C[C@H](F)CN1C(=O)Cc1ccsc1)N1CCCCC1

RP-LC retention time [s] | Structure (SMILES)
830 | Cc1ccc(NC(=O)c2cccc([N+](=O)[O-])c2)c(C)c1
806 | CC(C)NC(=O)Cn1c(=O)cc(-c2nc(C3CC3)no2)c2ccccc21
732 | Cc1ccc(S(=O)(=O)N(C)c2ccc(OCC(=O)N3CCOCC3)cc2)cc1
987 | Cn1c(=O)n(CC(=O)N2CCCCCC2)c(=O)c2cnc(-c3ccccc3)nc21
751 | CCc1cccc(NC(=O)N2CCC(CC(=O)N3CCCCC3)CC2)c1
619 | CN1CCN(S(=O)(=O)c2cc(-c3nnc(C4CCCC4)o3)co2)CC1
979 | O=C(NCc1cccs1)c1ccc2nc(CCc3ccccc3)oc2c1
796 | O=C(c1ccccc1Cl)N1CCN(S(=O)(=O)c2cc3c4c(c2)CCC(=O)N4CCC3)CC1
967 | CCOc1cc(C(=O)Nc2ccc(Cl)c(-c3nc4ccccc4[nH]3)c2)cc(OCC)c1OCC
873 | CCN(CC)C(=O)C1CCN(S(=O)(=O)c2ccc3c(c2)sc(=O)n3C(C)C)CC1
666 | Cc1cc(NC(=O)CSc2ccc(-n3cccn3)nn2)on1
690 | COCCOCc1nc(C2CCCN2C(=O)c2cccs2)no1 (stereo unspecified)
889 | CC(C)c1nc(C2Cc3ccccc3N2C(=O)NCc2ccco2)no1 (stereo unspecified)
639 | CCOC(=O)c1ccc(NC(=O)CN2CCc3[nH]c4c(C)c(C)ccc4c(=O)c3C2)cc1
609 | CCOc1cc(=O)c(C(=O)N2CCC(C(N)=O)CC2)nn1-c1ccc(OC)cc1
714 | CC(C)C(=O)NCCn1c(=O)n(Cc2ccccc2)c2cccnc21
918 | O=C(Nc1ccc(F)cc1)C(=O)c1c[nH]c2ccccc12
1120 | COc1ccc2c(c1)OC1(C)CC2C(S(=O)(=O)c2ccc(C(C)C)cc2)C(=O)N1C (stereo unspecified)
643 | CCN1CCN(C(=O)CN2C(=O)CCCc3cc(S(=O)(=O)N4CCC(C)CC4)ccc32)CC1
594 | Cc1nc(C)c(C(=O)NCC2Cn3cccc3C(=O)N2C)s1 (stereo unspecified)
1120 | CCCN(c1ccc(OCC)cc1)c1nc(C(=O)OCC)nc2ccccc12
566 | CCOC(=O)NCC1CCN(Cc2ccccc2SC)CC1
683 | COc1cccc2c(SCc3ccccn3)nccc12

RP-LC retention time [s] | Structure (SMILES)
1110 | O=S(=O)(c1ccc(-c2noc(-c3ccc(F)c(F)c3)n2)cc1)N1CCOCC1
566 | CN(C)c1ccc2c(c1)CN(C(=O)c1cnccn1)CCO2
633 | O=C1CCN(C(=O)c2ccco2)CCCCCCN1
915 | Cc1ccc(C)c(C(O)Cn2ccn3nc(-c4cccs4)cc3c2=O)c1 (stereo unspecified)
940 | CC(C)c1cc(Oc2c(Br)cc(NC(=O)CC(=O)O)cc2Br)ccc1O
902 | CC(C)NC(=O)N1CCCC1c1nc(-c2cccc(C(F)(F)F)c2)no1 (stereo unspecified)
939 | O=C(CN1c2ccc(F)cc2-c2ccccc2S1(=O)=O)NCc1ccccc1
910 | CCCNC(=O)N1c2ccccc2CC1c1nc(C(C)C)no1 (stereo unspecified)
983 | COc1ccc(-c2noc(C3CCCN3C(=O)Nc3ccccc3C)n2)cc1 (stereo unspecified)
785 | CCOC(=O)c1[nH]c(C)c(CCC(=O)N2CCC(C(=O)NCc3ccc(F)cc3)CC2)c1C
786 | Oc1cccc(-c2nc3cnc(Br)cn3c2Nc2ccc3c(c2)OCO3)c1
734 | Cc1nc2cc(N3CC(C(=O)NCc4cccc(Cl)c4)CC3=O)ccc2o1 (stereo unspecified)
991 | CC1CCCN(C(=O)c2cc3c(s2)CCN(C(=O)c2ccc(Cl)cc2)C3)C1 (stereo unspecified)
639 | O=C(Nc1ccc2c(c1)OCCO2)N1CCC(Oc2ccccc2)C1 (stereo unspecified)
896 | COc1ccc(OC)c(NC(=O)Cn2c(=O)n(-c3ccc(C)cc3)c3ncccc32)c1
1080 | CCN(CC)c1nc2cc(C(=O)OC)ccc2c(=O)n1-c1ccc2c(c1)OCO2
608 | Cc1oc(-c2ccc(C(=O)N3CCN(C)CC3)cc2)nc1CS(=O)(=O)c1ccccc1
670 | Cc1cc(N2CCN(C(=O)c3cccc(F)c3)CC2)nc(N2CCCCC2)n1
898 | Cc1nn2c(CNS(=O)(=O)c3ccc(F)c(C)c3)c(-c3ccccc3)nc2s1
572 | CN(C)CC1CN(C(=O)c2cc(F)ccc2F)CC12CCOCC2 (stereo unspecified)
1330 | Fc1ccc(OCc2nc(-c3ccc(-c4csc(C5CC5)n4)cc3)no2)cc1
716 | COc1cccc(/C=C/C(=O)N2CCC(c3cc(N)on3)CC2)c1

From the METLIN SMRT retention time set (Domingo-Almenara et al. 2019)
